Where only a bound is given, the exact number is not on record here.

A short description of data set [1]: Solubility of active ingredient (gallic acid) in aqueous solution of the compound. The conditions noted are these: in 1.8 g compound + 8.2 g ion-exchange water.
Data set [2] in a line: Water retention property test 1. Type of data set: physicochemical. The settings on record: 80 wt % aqueous solution. As to the method:
A moisture rate after 24 hours was again measured (post-test moisture rate: B), followed by using the formula below to calculate a rate of reduction in moisture so as to evaluate the water retention property. • Pre-test moisture rate: A (%) • Post-test moisture rate: B (%)

The nature of data set [3]: Surface resistance measurement of organic ammonium salt. The settings on record: 0.7 g applied to polyurethane artificial leather; liquid state; uncoated greater than 4×10^11Ω.
Data set [4] is described as follows: Affinity to hair (contact angle). The conditions noted are these: 50 wt % aqueous solution; condition B (hair iron, 160° C.).
Data set [5] can be described thus: Solubility of active ingredient (glutamic acid) in aqueous solution of the compound. The settings on record: in 1.8 g compound + 8.2 g ion-exchange water.
Data set [6] is described as follows: Water confinement property test (barrier property). The settings on record: 80 wt % aqueous solution, 0.01 mL/cm^2 on filter paper, 40° C. and 25% RH, 24 hours. Type of data set: physicochemical.
A short description of data set [7]: Sensory evaluation on healthy hair after using shampoo agent containing organic ammonium salt. More on the design: species or system human. The conditions noted are these: shampoo agent containing 3.0% by mass of the compound; treated 10 times. As to the method:
Next, the mixture was cooled to a temperature of 30° C. or lower, and a purified water of an evaporated amount was then added thereto so that the whole hair treatment composition would be 100% by mass, followed by uniformly mixing them so as to obtain a hair treatment composition(s). The pH level of the hair treatment composition was adjusted to pH 6.0 by adding a citric acid or sodium hydroxide.
About 5 g of the healthy hair was taken and dipped into 350 ml of a seven-time dilute aqueous solution of each of the abovementioned hair treatment compositions (shampoo agents) at 35 to 40° C. so as to be washed. The healthy hair was then subjected to a rinsing treatment five times using 500 ml of a warm water of 35 to 40° C., followed by drying the same at 80° C., and then performing air drying at 25° C. Such series of treatment involving hair washing, rinsing and drying was repeated 10 times to then evaluate a cohesiveness of the hair, a moist feeling of the hair, a gloss of the hair, a surface smoothness of the hair and a non-stickiness on the surface of the hair, after performing air drying.

The test system of another data set is keratin. As to the kind of experiment: Stabilization effect of hair treatment agent on keratin (IR, 130° C., seven days). The settings on record: treated keratin after 130° C. for seven days. The method, then: Here, 0.3 g of the keratin that had been treated in 4-1 was placed into a thermostatic device of 130° C. and left to stand still therein for seven days. After seven days, an IR spectrum of the keratin obtained was measured; by measuring an absorption derived from the α-helix secondary structure of amide, a stabilization effect of the hair treatment agent on the structure of keratin was evaluated.
Next, IR measurement was carried out after performing the heating test at 130° C. to obtain peaks derived from each amide and an intensity ratio(s) thereof to a reference peak (reference peak (derived from C—N) 1086 cm^−1, peak 1654 cm^−1 derived from the α-helix secondary structure of amide). The intensity ratio (X) was evaluated as “intensity of reference peak:intensity of peak derived from amide=1:X,” by reading the absorption intensity of the reference peak and the intensity of the peak derived from amide.

Data set [8] is described as follows: Water retention property and adherability with respect to healthy hair. The arrangement: species or system human.
Data set [9] is described as follows: Water retention property test 3 (long term). Type of data set: physicochemical. The settings on record: 80 wt % aqueous solution, 40° C. and 25% RH. As to the method: In a water retention property test 3, an 80 wt % aqueous solution of each of the compounds C8, C11, C62, C63 and C64 was prepared, followed by using a Karl Fischer moisture meter to confirm that a moisture rate was 20.0 wt %. Next, 1.0 g of each of these samples was added to a screw tube, and this screw tube, while remaining unsealed, was then left to stand still in a thermo-hygrostat set to 40° C. and 25% RH. […] In addition, the water retention property was evaluated by calculating an amount of moisture reduction per hour (mg/h) based on each amount of moisture reduction (mg).

[10] abbreviates: unsealed, 24 hours at 40° C. and 25% RH.

`OCC(O)CO` [Compound A52, glycerin, reference compound]: the “Amount of dissolution Gallic acid” value in [1] came out at 0.08 g. The compound further yielded a Pre-test moisture rate in data set [2] (before the test (Karl Fischer)) of 20.0%. Moreover, in data set [2] (setting [10]), the Post-test moisture rate stood at 18.0% and the “Rate of reduction in moisture” value is on record as 10.0%. For the same compound, the Surface resistance value in [3] is on record as 5×10^8 Ω. Moreover, in data set [4], the “Contact angle of water droplet on treated hair” value was “not indifferent from that of the untreated product”. In addition, in [5], the “Amount of dissolution Glutamic acid” value is below 0.08 g. In addition, in data set [6], the “Water evaporation inhibition rate” value is recorded as 16.2%. The “Sensory evaluation of healthy hair after shampoo agent (cohesiveness, moist feeling, gloss, smoothness, non-stickiness)” value in data set [7] is on record as “inferior in general”. Besides, in the data set with keratin, the “α-helix secondary structure of keratin after heating” value is reported as “maintained”. The Post-test moisture rate in data set [8] (healthy hair immersed 60 min in 80 wt % aqueous solution, after 24 hours at 40° C., 35 to 40% RH, pre-test 7.6%) was determined as 5.3%. This compound also gave a Compound adhesion rate in data set [8] (healthy hair immersed 60 min in 80 wt % aqueous solution, listed as B26) of 1.0%. The “Rate of reduction in moisture” value in data set [8] (healthy hair, 80 wt % aqueous solution, 24 hours at 40° C., 35 to 40% RH) worked out at 30%. Moreover, in [9] (unsealed), the “Amount of moisture reduction in 120 to 144 h” value worked out at 29.4 mg, the “Amount of moisture reduction in 144 to 168 h” value was 30.0 mg, the “Amount of moisture reduction in 168 to 192 h” value is 13.1 mg and the “Moisture rate after 144 h” value turned out to be 5.4%. In addition, in data set [9] (unsealed), the “Moisture rate after 168 h” value is 1.9% and the “Moisture rate after 192 h” value was determined as 0.3%. Further, the “Amount of moisture reduction per hour” value in [9] (120~144 h) was found to be 1.2 mg/h. The “Amount of moisture reduction per hour” value in data set [9] (144~168 h) was 1.3 mg/h. Further, the “Amount of moisture reduction per hour” value in [9] (168~192 h) is recorded as 0.5 mg/h.
